Measurements: ChEMBL document CHEMBL1201862, “PubChem BioAssay data set” (2004)
Calls of active or inactive are those of the source.

Tests used:
[1] = target: T1, Cytochrome P450 1A2 (Homo sapiens, UniProt P05177);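 also: PubChem cytochrome P450 panel assay, CYP1A2 panel member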
T1 sequence (P05177 whole entry): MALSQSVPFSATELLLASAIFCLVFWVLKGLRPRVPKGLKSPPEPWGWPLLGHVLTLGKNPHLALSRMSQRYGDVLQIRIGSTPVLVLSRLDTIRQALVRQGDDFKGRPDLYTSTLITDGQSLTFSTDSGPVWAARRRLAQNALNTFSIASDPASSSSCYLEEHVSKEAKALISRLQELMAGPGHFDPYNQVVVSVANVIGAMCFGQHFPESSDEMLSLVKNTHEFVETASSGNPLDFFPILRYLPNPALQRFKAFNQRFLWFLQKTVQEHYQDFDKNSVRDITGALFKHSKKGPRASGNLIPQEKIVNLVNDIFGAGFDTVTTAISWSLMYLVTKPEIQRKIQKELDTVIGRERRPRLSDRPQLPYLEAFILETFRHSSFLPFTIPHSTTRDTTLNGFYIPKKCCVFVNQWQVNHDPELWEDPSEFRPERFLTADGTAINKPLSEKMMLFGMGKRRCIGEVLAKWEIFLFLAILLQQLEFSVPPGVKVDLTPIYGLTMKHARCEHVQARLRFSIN

[2] = target: Cytochrome P450 3A4 (Homo sapiens, UniProt P08684);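 also: CYP3A4 tested as one member of a cytochrome P450 panel screen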
Cytochrome P450 3A4, sequence (P08684 whole entry): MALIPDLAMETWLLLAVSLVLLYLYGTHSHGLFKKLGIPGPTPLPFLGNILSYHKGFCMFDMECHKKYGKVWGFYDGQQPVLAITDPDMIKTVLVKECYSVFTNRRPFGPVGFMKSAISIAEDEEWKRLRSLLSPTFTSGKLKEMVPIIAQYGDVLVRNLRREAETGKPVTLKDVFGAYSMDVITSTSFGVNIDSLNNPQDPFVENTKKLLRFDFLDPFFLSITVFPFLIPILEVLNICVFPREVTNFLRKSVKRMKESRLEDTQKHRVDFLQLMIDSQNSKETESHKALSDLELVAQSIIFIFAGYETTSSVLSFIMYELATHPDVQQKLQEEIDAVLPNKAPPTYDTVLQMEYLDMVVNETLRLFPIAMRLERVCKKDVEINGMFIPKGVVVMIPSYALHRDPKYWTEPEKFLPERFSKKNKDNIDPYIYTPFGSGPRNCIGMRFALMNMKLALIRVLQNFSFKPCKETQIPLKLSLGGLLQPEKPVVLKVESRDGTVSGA

[3] = tested on: HEK293; experiment: inhibition of NOD1-driven NF-kB reporter – cell-based, luminescence, uHTS, primary screen (AID 1578); assay type: functional; details: Homo sapiens
[4] = tested on: HEK293; experiment: cells; assay type: functional, cell-based; details: Homo sapiens
[5] = tested on: HEK293; experiment: cells; assay type: functional, cell-based; details: Homo sapiens; remark: listed apart in the source
[6] = target: Nucleotide-binding oligomerization domain-containing protein 2 (Homo sapiens, UniProt Q9HC29); experiment: inhibition of NOD2-driven NF-kB reporter – cell-based, luminescence, uHTS, HEK293 (AID 1566); assay type: functional
Nucleotide-binding oligomerization domain-containing protein 2, sequence (Q9HC29 whole entry, the tested form may be a part): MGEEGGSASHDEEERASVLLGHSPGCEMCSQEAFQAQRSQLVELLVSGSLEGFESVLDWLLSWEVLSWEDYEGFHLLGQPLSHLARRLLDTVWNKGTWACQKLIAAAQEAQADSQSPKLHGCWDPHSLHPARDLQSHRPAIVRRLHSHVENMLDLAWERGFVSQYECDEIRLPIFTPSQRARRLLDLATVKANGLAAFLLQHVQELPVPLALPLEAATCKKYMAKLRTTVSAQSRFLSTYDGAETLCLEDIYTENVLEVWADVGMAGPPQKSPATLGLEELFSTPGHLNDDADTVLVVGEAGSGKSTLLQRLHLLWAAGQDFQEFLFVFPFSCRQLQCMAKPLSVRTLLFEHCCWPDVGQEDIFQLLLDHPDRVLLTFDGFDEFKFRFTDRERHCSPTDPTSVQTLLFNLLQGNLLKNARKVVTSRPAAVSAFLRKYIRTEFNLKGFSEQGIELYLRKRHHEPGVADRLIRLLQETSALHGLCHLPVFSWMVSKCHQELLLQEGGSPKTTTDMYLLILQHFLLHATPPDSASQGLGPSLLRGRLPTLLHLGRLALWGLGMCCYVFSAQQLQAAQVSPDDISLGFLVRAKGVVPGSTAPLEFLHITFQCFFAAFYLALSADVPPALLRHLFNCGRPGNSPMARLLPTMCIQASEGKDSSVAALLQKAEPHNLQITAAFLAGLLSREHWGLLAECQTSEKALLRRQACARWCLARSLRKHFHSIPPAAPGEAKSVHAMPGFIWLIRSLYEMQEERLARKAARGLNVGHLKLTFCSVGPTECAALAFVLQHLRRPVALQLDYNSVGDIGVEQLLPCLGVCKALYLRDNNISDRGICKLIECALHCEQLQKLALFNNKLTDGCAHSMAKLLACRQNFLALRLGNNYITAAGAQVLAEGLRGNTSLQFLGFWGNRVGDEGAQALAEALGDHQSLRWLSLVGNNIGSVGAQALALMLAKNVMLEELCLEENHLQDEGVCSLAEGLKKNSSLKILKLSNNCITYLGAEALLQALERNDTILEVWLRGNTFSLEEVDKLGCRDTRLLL

[7] = tested on: HEK293; experiment: NOD2 signaling inhibitors in MDP-stimulated cells, cell-based, uHTS, luminescence (AID 2001); assay type: functional; details: Homo sapiens
[8] = tested on: HEK293; experiment: cells; assay type: functional, cell-based; details: Homo sapiens; remark: listed apart in the source
[9] = target: Cytochrome P450 2C19 (Homo sapiens, UniProt P33261); experiment: Cytochrome panel assay with activity outcomes. Panel member name: p450-cyp2c19 Compounds with AC50 equal or less than 10 uM are considered active; assay type: functional
Cytochrome P450 2C19, sequence (P33261 whole entry): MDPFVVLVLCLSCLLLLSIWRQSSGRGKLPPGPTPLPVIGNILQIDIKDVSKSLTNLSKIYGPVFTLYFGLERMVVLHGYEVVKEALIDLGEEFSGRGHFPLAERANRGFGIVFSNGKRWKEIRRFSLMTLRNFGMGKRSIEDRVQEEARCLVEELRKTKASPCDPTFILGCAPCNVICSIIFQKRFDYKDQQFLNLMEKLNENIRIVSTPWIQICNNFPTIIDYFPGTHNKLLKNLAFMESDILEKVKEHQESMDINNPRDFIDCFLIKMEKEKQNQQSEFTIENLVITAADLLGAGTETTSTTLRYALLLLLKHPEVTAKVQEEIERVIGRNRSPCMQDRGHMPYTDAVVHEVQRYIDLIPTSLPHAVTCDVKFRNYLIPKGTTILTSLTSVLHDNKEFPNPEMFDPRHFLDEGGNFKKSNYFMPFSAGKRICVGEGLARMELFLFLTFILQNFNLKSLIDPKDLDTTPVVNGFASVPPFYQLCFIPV

[10] = tested on: HEK293; experiment: EBV LMP1 TES2 canonical NF-kB signalling blockers – cell-based, HEK293, luciferase, cherry-pick, dose response (AID 588343); assay type: functional; details: Homo sapiens
[11] = target: Dual specificity tyrosine-phosphorylation-regulated kinase 1A (Rattus norvegicus, UniProt Q63470); assay type: biochemical, Homo sapiens
[12] = viability of PTEN-deleted HCT116 cells – cell-based, HCT116 PTEN knockout, dose response (AID 1047); assay type: functional;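 also: HCT116 colon tumor cells with PTEN knocked out; cells exposed to compound for 60 hours before readout; potency for loss of cell viability measured by luminescence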
[13] = viability of HCT116 lacking mutant beta-catenin – cell-based, human colon tumor, dose response (AID 1045); assay type: functional;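 also: HCT116 colon tumor cells with beta catenin knocked out; cells exposed to compound for 60 hours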
[14] = target: DNA damage-inducible transcript 3 protein (Mus musculus, UniProt P35639); assay type: functional, Cricetulus griseus
DNA damage-inducible transcript 3 protein, sequence (P35639 whole entry): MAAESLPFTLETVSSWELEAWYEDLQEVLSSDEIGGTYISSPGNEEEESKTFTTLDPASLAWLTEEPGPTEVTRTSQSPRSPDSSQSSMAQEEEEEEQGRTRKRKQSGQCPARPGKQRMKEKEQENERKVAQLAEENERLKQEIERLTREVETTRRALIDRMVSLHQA

In the case of `Cn1c(=O)c(-c2ccc(Cl)cc2)nc2cnc(Oc3cccc(Cl)c3)nc21`, the AC50 [1] is reported as 0.251 µM (inconclusive) and the AC50 [2] is reported as “inconclusive”.
In the case of `CCN(C(=O)c1cnc(N2CCN(c3ncccn3)CC2)c2ccccc12)c1cccc(Cl)c1`, the EC50 [3] is reported as 5.39 µM (active), the IC50 [4] is reported as 3.5 µM (active) and the IC50 [5] is reported as 8.34 µM (active). The EC50 [6] was 7.19 µM (active), the IC50 [7] was 4.17 µM (active) and the IC50 [8] was > 20 µM (inactive). The AC50 [1] was 15.8 µM (inconclusive).
For `CCOC(=O)N1CCN(C(=O)c2ccc3c(=O)n(-c4ccc(OC)cc4)c(=S)[nH]c3c2)CC1`, the AC50 [1] was 39.8 µM (inconclusive) and the AC50 [2] was “inconclusive”.
For `O=C(Nc1nnc(COc2ccc(Cl)cc2)s1)c1ccc([N+](=O)[O-])cc1`, the AC50 [9] was “inconclusive” and the AC50 [2] was “inconclusive”.
In the case of `C#C[C@@]1(OC(C)=O)CC[C@@H]2[C@@H]3CCC4=C[C@@H](OC(C)=O)CC[C@H]4[C@H]3CC[C@]21C`, the AC50 [2] is reported as “inconclusive”.
For `CC1(C)Cc2nc3sc4c(SCC(=O)O)ncnc4c3cc2CO1`, the AC50 [10] was 4.58 µM (active) and the AC50 [11] was 2.6 µM (active).
With `CSc1nc(O)c2cnn(-c3ccc(C)c(C)c3)c2n1` the EC50 [12] was 26.2 µM (active), the EC50 [13] was 27.6 µM (active) and the “Absolute IC50 (CHOP)” value [14] was 10 µM.
With `O=C(c1cnccn1)N1CCC2(CC1)CN(c1ccccn1)C2` the AC50 [2] was “inconclusive”.
